Experimental data from patent US20260274892A1, “MACROCYCLIC BROAD SPECTRUM ANTIBIOTICS” (RQx Pharmaceuticals, Inc., priority 2017, published 2026).

How the values were obtained:
[1] = system: Escherichia coli ATCC 25922; test: Minimum inhibitory concentration (MIC), CLSI broth micro-dilution, E. coli; assay type: cell-based; conditions: Escherichia coli, ATCC25922, 22 h, Table 6, cation adjusted Mueller Hinton Broth + 0.002% Tween-80, 35° C.
Procedure, shortened: (§1)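 Antibacterial potency is measured as MIC by the CLSI broth dilution method. Bacteria at OD600 0.0005 in Tween-80-supplemented cation-adjusted Mueller Hinton broth face ten twofold compound dilutions for 22 h at 35° C.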

[2] = system: Methicillin Resistant Staphylococcus aureus strain USA 200; test: Minimum inhibitory concentration (MIC), CLSI broth micro-dilution, S. aureus; assay type: cell-based; conditions: Staphylococcus aureus, MRSA / USA200; Table 6; MRSA USA 200; cation adjusted Mueller Hinton Broth + 0.002% Tween-80; 35° C., 22 hours
Procedure, shortened: as §1

Compound	MIC [1] [µM]	MIC [2] [µM]
Cc1nc(-c2ccc(OC3CCC(C)(C)CC3)cc2)nc(C)c1C(=O)N[C@@H](CCN)C(=O)N(C)[C@@H]1C(=O)N[C@@H](C)C(=O)N[C@H](C(=O)NCC#N)Cc2ccc(OCCN)c(c2)-c2cc1ccc2OCCN (racemic) [Compound 348, rac-(8S,11S,14S)-3,18-bis(2-aminoethoxy)-N-(cyanomethyl)-11-methyl-14-[methyl-[rac-(2S)-4-amino-2-[[2-[4-(4,4-dimethylcyclohexoxy)phenyl]-4,6-dimethyl-pyrimidine-5-carbonyl]amino]butanoyl]amino]-10,13-dioxo-9,12-diazatricyclo[13.3.1.12,6]icosa-1(18),2(20),3,5,15(19),16-hexaene-8-carboxamide]	0.19	0.023
Cc1nc(-c2ccc(OC3C[C@H]4CCCC[C@H]4C3)cc2)nc(C)c1C(=O)N[C@@H](CCN)C(=O)N(C)[C@@H]1C(=O)N[C@@H](C)C(=O)N[C@H](C(=O)NCC#N)Cc2ccc(OCCN)c(c2)-c2cc1ccc2OCCN (mixture of isomers) [Compound 349, rac-(8S,11S,14S)-3,18-bis(2-aminoethoxy)-N-(cyanomethyl)-11-methyl-14-[methyl-[rac-(2S)-4-amino-2-[[4,6-dimethyl-2-[4-[[rac-(3aR,7aS)-2,3,3a,4,5,6,7,7a-octahydro-1H-inden-2-yl]oxy]phenyl]pyrimidine-5-carbonyl]amino]butanoyl]amino]-10,13-dioxo-9,12-diazatricyclo[13.3.1.12,6]icosa-1(18),2(20),3,5,15(19),16-hexaene-8-carboxamide]	0.094	0.023
Cc1nc(-c2ccc(OC3C[C@@H]4CC[C@H]3C4)cc2)nc(C)c1C(=O)N[C@@H](CCN)C(=O)N(C)[C@@H]1C(=O)N[C@@H](C)C(=O)N[C@H](C(=O)NCC#N)Cc2ccc(OCCN)c(c2)-c2cc1ccc2OCCN (mixture of isomers) [Compound 350, rac-(8S,11S,14S)-3,18-bis(2-aminoethoxy)-N-(cyanomethyl)-11-methyl-14-[methyl-[rac-(2S)-4-amino-2-[[4,6-dimethyl-2-[4-[rac-(1S,4R)-norboman-2-yl]oxyphenyl]pyrimidine-5-carbonyl]amino]butanoyl]amino]-10,13-dioxo-9,12-diazatricyclo[13.3.1.12,6]icosa-1(18),2(20),3,5,15(19),16-hexaene-8-carboxamide]	0.094	0.016
CCCCc1ccc(Oc2nc(C)c(C(=O)N[C@@H](CCN)C(=O)N(C)[C@@H]3C(=O)N[C@@H](C)C(=O)N[C@H](C(=O)NCC#N)Cc4ccc(OCCN)c(c4)-c4cc3ccc4OCCN)c(C)n2)cc1 (racemic) [Compound 354, rac-(8S,11S,14S)-3,18-bis(2-aminoethoxy)-N-(cyanomethyl)-11-methyl-14-[methyl-[rac-(2S)-4-amino-2-[[2-(4-butylphenoxy)-4,6-dimethyl-pyrimidine-5-carbonyl]amino]butanoyl]amino]-10,13-dioxo-9,12-diazatricyclo[13.3.1.12,6]icosa-1(18),2(20),3,5,15(19),16-hexaene-8-carboxamide]	1.5	0.016
CCCCc1ccc(Oc2nc(C)c(C(=O)N[C@@H](CCN)C(=O)N(C)[C@@H]3C(=O)N[C@@H](C)C(=O)N[C@H](C(=O)NCC#N)Cc4ccc(OCCN)c(c4)-c4cc3ccc4OCCN)c(C)n2)cc1CCCC (racemic) [Compound 355, rac-(8S,11S,14S)-3,18-bis(2-aminoethoxy)-N-(cyanomethyl)-11-methyl-14-[methyl-[rac-(2S)-4-amino-2-[[2-(3,4-dibutylphenoxy)-4,6-dimethyl-pyrimidine-5-carbonyl]amino]butanoyl]amino]-10,13-dioxo-9,12-diazatricyclo[13.3.1.12,6]icosa-1(18),2(20),3,5,15(19),16-hexaene-8-carboxamide]	4	0.094
Cc1cc(-c2ccc(OCC(C)(C)C)cc2)nc(C)c1C(=O)N[C@@H](CCN)C(=O)N(C)[C@@H]1C(=O)N[C@@H](C)C(=O)N[C@H](C(=O)NCC#N)Cc2ccc(OCCN)c(c2)-c2cc1ccc2OCCN (racemic) [Compound 359, rac-(8S,11S,14S)-3,18-bis(2-aminoethoxy)-N-(cyanomethyl)-11-methyl-14-[methyl-[rac-(2S)-4-amino-2-[[6-[4-(2,2-dimethylpropoxy)phenyl]-2,4-dimethyl-pyridine-3-carbonyl]amino]butanoyl]amino]-10,13-dioxo-9,12-diazatricyclo[13.3.1.12,6]icosa-1(18),2(20),3,5,15(19),16-hexaene-8-carboxamide]	0.064	0.008
Cc1cc(-c2ccc(OC(C)C)cc2)nc(C)c1C(=O)N[C@@H](CCN)C(=O)N(C)[C@@H]1C(=O)N[C@@H](C)C(=O)N[C@H](C(=O)NCC#N)Cc2ccc(OCCN)c(c2)-c2cc1ccc2OCCN (racemic) [Compound 360, rac-(8S,11S,14S)-3,18-bis(2-aminoethoxy)-N-(cyanomethyl)-11-methyl-14-[methyl-[rac-(2S)-4-amino-2-[[6-(4-isopropoxyphenyl)-2,4-dimethyl-pyridine-3-carbonyl]amino]butanoyl]amino]-10,13-dioxo-9,12-diazatricyclo[13.3.1.12,6]icosa-1(18),2(20),3,5,15(19),16-hexaene-8-carboxamide]	0.26	0.066
Cc1cc(-c2ccc3c(c2)CCC3(C)C)nc(C)c1C(=O)N[C@@H](CCN)C(=O)N(C)[C@@H]1C(=O)N[C@@H](C)C(=O)N[C@H](C(=O)NCC#N)Cc2ccc(OCCN)c(c2)-c2cc1ccc2OCCN (racemic) [Compound 361, rac-(8S,11S,14S)-3,18-bis(2-aminoethoxy)-N-(cyanomethyl)-11-methyl-14-[methyl-[rac-(2S)-4-amino-2-[[6-(1,1-dimethylindan-5-yl)-2,4-dimethyl-pyridine-3-carbonyl]amino]butanoyl]amino]-10,13-dioxo-9,12-diazatricyclo[13.3.1.12,6]icosa-1(18),2(20),3,5,15(19),16-hexaene-8-carboxamide]	0.13	0.016
CCCCCOc1ccc(-c2cc(C)c(C(=O)N[C@@H](CCN)C(=O)N(C)[C@@H]3C(=O)N[C@@H](C)C(=O)N[C@H](C(=O)NCC#N)Cc4ccc(OCCN)c(c4)-c4cc3ccc4OCCN)c(C)n2)cc1 (racemic) [Compound 362, rac-(8S,11S,14S)-3,18-bis(2-aminoethoxy)-N-(cyanomethyl)-11-methyl-14-[methyl-[rac-(2S)-4-amino-2-[[2,4-dimethyl-6-(4-pentoxyphenyl)pyridine-3-carbonyl]amino]butanoyl]amino]-10,13-dioxo-9,12-diazatricyclo[13.3.1.12,6]icosa-1(18),2(20),3,5,15(19),16-hexaene-8-carboxamide]	0.25	0.063
Cc1cc(-c2ccc(C(C)(C)C)cc2F)nc(C)c1C(=O)N[C@@H](CCN)C(=O)N(C)[C@@H]1C(=O)N[C@@H](C)C(=O)N[C@H](C(=O)NCC#N)Cc2ccc(OCCN)c(c2)-c2cc1ccc2OCCN (racemic) [Compound 363, rac-(8S,11S,14S)-3,18-bis(2-aminoethoxy)-N-(cyanomethyl)-11-methyl-14-[methyl-[rac-(2S)-4-amino-2-[[6-(4-tert-butyl-2-fluoro-phenyl)-2,4-dimethyl-pyridine-3-carbonyl]amino]butanoyl]amino]-10,13-dioxo-9,12-diazatricyclo[13.3.1.12,6]icosa-1(18),2(20),3,5,15(19),16-hexaene-8-carboxamide]	0.19	0.016
Cc1cc(-c2ccc(OC3CCCCC3)cc2)nc(C)c1C(=O)N[C@@H](CCN)C(=O)N(C)[C@@H]1C(=O)N[C@@H](C)C(=O)N[C@H](C(=O)NCC#N)Cc2ccc(OCCN)c(c2)-c2cc1ccc2OCCN (racemic) [Compound 364, rac-(8S,11S,14S)-3,18-bis(2-aminoethoxy)-N-(cyanomethyl)-11-methyl-14-[methyl-[rac-(2S)-4-amino-2-[[6-[4-(cyclohexoxy)phenyl]-2,4-dimethyl-pyridine-3-carbonyl]amino]butanoyl]amino]-10,13-dioxo-9,12-diazatricyclo[13.3.1.12,6]icosa-1(18),2(20),3,5,15(19),16-hexaene-8-carboxamide]	0.25	0.016
CCCCc1ccc(-c2cc(C)c(C(=O)N[C@@H](CCN)C(=O)N(C)[C@@H]3C(=O)N[C@@H](C)C(=O)N[C@H](C(=O)NCC#N)Cc4ccc(OCCN)c(c4)-c4cc3ccc4OCCN)c(C)n2)cc1 (racemic) [Compound 366, rac-(8S,11S,14S)-3,18-bis(2-aminoethoxy)-N-(cyanomethyl)-11-methyl-14-[methyl-[rac-(2S)-4-amino-2-[[6-(4-butylphenyl)-2,4-dimethyl-pyridine-3-carbonyl]amino]butanoyl]amino]-10,13-dioxo-9,12-diazatricyclo[13.3.1.12,6]icosa-1(18),2(20),3,5,15(19),16-hexaene-8-carboxamide]	0.13	0.016
Cc1cc(-c2ccc(C(C)(C)C)cc2N)nc(C)c1C(=O)N[C@@H](CCN)C(=O)N(C)[C@@H]1C(=O)N[C@@H](C)C(=O)N[C@H](C(=O)NCC#N)Cc2ccc(OCCN)c(c2)-c2cc1ccc2OCCN (racemic) [Compound 369, rac-(8S,11S,14S)-3,18-bis(2-aminoethoxy)-N-(cyanomethyl)-11-methyl-14-[methyl-[rac-(2S)-4-amino-2-[[6-(2-amino-4-tert-butyl-phenyl)-2,4-dimethyl-pyridine-3-carbonyl]amino]butanoyl]amino]-10,13-dioxo-9,12-diazatricyclo[13.3.1.12,6]icosa-1(18),2(20),3,5,15(19),16-hexaene-8-carboxamide]	0.75	0.047
